The results in this text go back to US20240368664A1, “LIVE YEAST BIOSENSORS AND METHODS OF USE THEREOF” (priority 2021, published 2024).

No end group written: not given here.

In test [1] the test system is SsSte2 mutants. It counts as cell-based, Scheffersomyces stipites.
Test [2] concerns mutant SsSte2. The class given is cell-based, Scheffersomyces stipites.

Turning to KHWPQIAQFAPS [nucleocapsid epitope], the “biosensor signal compared to signal in the presence of water” value in test [1] is “over twice as strong”. Also, in test [2], the EC50 was around 10 µM.
